Where two headings read alike, the source gives them in different places.
Conditions: rcm bond, 40.0 °C

## CCOC(=O)[C@@]12C[C@H]1C=CCCCCC[C@H](NC(=O)OC(C)(C)C)C(=O)N1C[C@@H](O)C[C@H]1C(=O)N2
From C=CCCCCC[C@H](NC(=O)OC(C)(C)C)C(=O)N1C[C@@H](O)C[C@H]1C(=O)N[C@]1(C(=O)OCC)C[C@H]1C=C, Hoveyda 1st generation catalyst, DCM, 14.45 mM, 12.0 h
  ring closure, yield of all isomers: 87%

## CCOC(=O)[C@@]12C[C@H]1C=CCCCCC[C@H](NC(=O)OC(C)(C)C)C(=O)N1C[C@H](n3nnc(-c4ccccc4)n3)C[C@H]1C(=O)N2
From C=CCCCCC[C@H](NC(=O)OC(C)(C)C)C(=O)N1C[C@H](n2nnc(-c3ccccc3)n2)C[C@H]1C(=O)N[C@]1(C(=O)OCC)C[C@H]1C=C, Hoveyda catalyst, DCM, 2.18 mM, 20.0 h
  ring closure, yield of all isomers: 85.5%

## CCOC(=O)[C@@]12C[C@H]1C=CCCCCC[C@H](NC(=O)OC(C)(C)C)C(=O)N1C[C@H](c3nnn(Cc4ccc(-c5ccccc5)cc4)n3)C[C@H]1C(=O)N2
From C=CCCCCC[C@H](NC(=O)OC(C)(C)C)C(=O)N1C[C@H](c2nnn(Cc3ccc(-c4ccccc4)cc3)n2)C[C@H]1C(=O)N[C@]1(C(=O)OCC)C[C@H]1C=C, Hoveyda's catalyst, CH2Cl2, 10.0 mM, 16.0 h
  ring closure, yield of all isomers: 91.3%

From patent US7601709
